For 17 compounds, IC50 results are on record in US12540143B2, “Methods and compositions for targeted protein degradation” (Ranok Therapeutics (Hangzhou) Co. Ltd., priority 2019, dated 2026).

In one data set the test system is MV4-11 cells. Briefly: MV4-11 Cytotoxicity Assay. Conditions: 72 hr, CCK-8; read-out: MV4-11 cytotoxicity. It counts as cell-based, human.
Turning to `CC[C@@H](C)Nc1cc(C(=O)NC2C[C@H]3CC[C@H](C2)N3c2ccc(C(=O)c3ccc(CN4CCN(CC5CCN(C(=O)C[C@@H]6N=C(c7ccc(Cl)cc7)c7c(sc(C)c7C)-n7c(C)nnc76)CC5)CC4)cc3)cn2)c(C)cc1C(N)=O` (some centres unmarked) [Compound 25], the IC50 lay within 100 to 1000 nM.

Still in this data set, the particulars now being: Homo sapiens, MV4-11; 72 hr, CCK-8; read-out: MV4-11 cytotoxicity.
For the compound `Cc1sc2c(c1C)C(c1ccc(Cl)cc1)=N[C@@H](CC(=O)NCCOc1ccc(-n3c(S)nnc3-c3cc(C(C)C)c(O)cc3O)cc1)c1nnc(C)n1-2` [Compound 32, (S)-2-(4-(4-chlorophenyl)-2,3,9-trimethyl-6H-thieno[3,2-f][1,2,4]triazolo[4,3-a][1,4]diazepin-6-yl)-N-(2-(4-(3-(2,4-dihydroxy-5-isopropylphenyl)-5-mercapto-4H-1,2,4-triazol-4-yl)phenoxy)ethyl)acetamide], the IC50 fell in the range of 100 to 1000 nM.
Still for that read-out and setting: the figure for `Cc1sc2c(c1C)C(c1ccc(Cl)cc1)=N[C@@H](CC(=O)NCCc1ccc(CN3CCC(Cc4ccc(-n5c(O)nnc5-c5cc(C(C)C)c(O)cc5O)cc4)CC3)cc1)c1nnc(C)n1-2` [Compound 98, (S)-2-(4-(4-chlorophenyl)-2,3,9-trimethyl-6H-thieno[3,2-f][1,2,4]triazolo[4,3-a][1,4]diazepin-6-yl)-N-(4-((4-(4-(3-(2,4-dihydroxy-5-isopropylphenyl)-5-hydroxy-4H-1,2,4-triazol-4-yl)benzyl)piperidin-1-yl)methyl)phenethyl)acetamide, trifluoroacetic acid] is less than 100 nM; for `Cc1sc2c(c1C)C(c1ccc(Cl)cc1)=N[C@@H](CC(=O)N(C)[C@H](C)c1ccc(CN3CCC(Cc4ccc(-n5c(O)nnc5-c5cc(C(C)C)c(O)cc5O)cc4)CC3)cc1)c1nnc(C)n1-2` [Compound 93, 2-((S)-4-(4-chlorophenyl)-2,3,9-trimethyl-6H-thieno[3,2-f][1,2,4]triazolo[4,3-a][1,4]diazepin-6-yl)-N—((R)-1-(4-((4-(4-(3-(2,4-dihydroxy-5-isopropylphenyl)-5-hydroxy-4H-1,2,4-triazol-4-yl)benzyl)piperidin-1-yl)methyl)phenyl)ethyl)-N-methylacetamide, trifluoroacetic acid] it is less than 100 nM; for `Cc1sc2c(c1C)C(c1ccc(Cl)cc1)=N[C@@H](CCNCCOCCOc1ccc(-n3c(O)nnc3-c3cc(C(C)C)c(O)cc3O)cc1)c1nnc(C)n1-2` [Compound 63, (S)-4-(4-(4-(2-(2-((2-(4-(4-chlorophenyl)-2,3,9-trimethyl-6H-thieno[3,2-f][1,2,4]triazolo[4,3-a][1,4]diazepin-6-yl)ethyl)amino)ethoxy)ethoxy)phenyl)-5-hydroxy-4H-1,2,4-triazol-3-yl)-6-isopropylbenzene-1,3-diol, trifluoroacetic acid] it is 100 to 1000 nM.
On the same count and under the same terms, the value for `Cc1sc2c(c1C)C(c1ccc(Cl)cc1)=N[C@@H](CC(=O)NCC(=O)NCCOCCOc1ccc(-n3c(O)nnc3-c3cc(C(C)C)c(O)cc3O)cc1)c1nnc(C)n1-2` [Compound 55, (S)-2-(4-(4-chlorophenyl)-2,3,9-trimethyl-6H-thieno[3,2-f][1,2,4]triazolo[4,3-a][1,4]diazepin-6-yl)-N-(2-((2-(2-(4-(3-(2,4-dihydroxy-5-isopropylphenyl)-5-hydroxy-4H-1,2,4-triazol-4-yl)phenoxy)ethoxy)ethyl)amino)-2-oxoethyl)acetamide] was 100 to 1000 nM.
With `CCN(Cc1ccc(OCCCNC(=O)C[C@@H]2N=C(c3ccc(Cl)cc3)c3c(sc(C)c3C)-n3c(C)nnc32)cc1)Cc1ccc(-n2c(O)nnc2-c2cc(C(C)C)c(O)cc2O)cc1` [Compound 100, (S)-2-(4-(4-chlorophenyl)-2,3,9-trimethyl-6H-thieno[3,2-f][1,2,4]triazolo[4,3-a][1,4]diazepin-6-yl)-N-(3-(4-(((4-(3-(2,4-dihydroxy-5-isopropylphenyl)-5-hydroxy-4H-1,2,4-triazol-4-yl)benzyl)(ethyl)amino)methyl)phenoxy)propyl)acetamide, formic acid], the IC50 is less than 100 nM.
Still for that read-out and setting: the value for `Cc1sc2c(c1C)C(c1ccc(Cl)cc1)=N[C@@H](CC(=O)NCC(=O)NCc1ccc(-n3c(O)nnc3-c3cc(C(C)C)c(O)cc3O)cc1)c1nnc(C)n1-2` [Compound 57, 2-((6S)-4-(4-chlorophenyl)-2,3,9-trimethyl-6H-thieno[3,2-f][1,2,4]triazolo[4,3-a][1,4]diazepin-6-yl)-N-(2-((4-(3-(2,4-dihydroxy-5-isopropylphenyl)-5-hydroxy-4H-1,2,4-triazol-4-yl)benzyl)amino)-2-oxoethyl)acetamide] was 100 to 1000 nM.
On to `CCNC(=O)c1nnc(-c2cc(CC)c(O)cc2O)n1-c1ccc(CC2CCN(CC3CCN(C(=O)C[C@@H]4N=C(c5ccc(Cl)cc5)c5c(sc(C)c5C)-n5c(C)nnc54)CC3)CC2)cc1` [Compound 87, (S)-4-(4-((1-((1-(2-(4-(4-chlorophenyl)-2,3,9-trimethyl-6H-thieno[3,2-f][1,2,4]triazolo[4,3-a][1,4]diazepin-6-yl)acetyl)piperidin-4-yl)methyl)piperidin-4-yl)methyl)phenyl)-N-ethyl-5-(5-ethyl-2,4-dihydroxyphenyl)-1H-1,2,414-triazole-3-carboxamide, trifluoroacetic acid], for which the IC50 was less than 100 nM.
`Cc1sc2c(c1C)C(c1ccc(Cl)cc1)=N[C@@H](CC(=O)NCc1ccc(CN3CCC(Cc4ccc(-n5c(O)nnc5-c5cc(C(C)C)c(O)cc5O)cc4)CC3)cc1)c1nnc(C)n1-2` [Compound 89, (S)-2-(4-(4-chlorophenyl)-2,3,9-trimethyl-6H-thieno[3,2-f][1,2,4]triazolo[4,3-a][1,4]diazepin-6-yl)-N-(4-((4-(4-(3-(2,4-dihydroxy-5-isopropylphenyl)-5-hydroxy-4H-1,2,4-triazol-4-yl)benzyl)piperidin-1-yl)methyl)benzyl)acetamide, trifluoroacetic acid]: the IC50 was less than 100 nM.
As for `Cc1sc2c(c1C)C(c1ccc(Cl)cc1)=N[C@@H](CC(=O)N1CCC(Cc3ccc(-n4c(O)nnc4-c4cc(C(C)C)c(O)cc4O)cc3)CC1)c1nnc(C)n1-2` [Compound 3, 2-((6S)-4-(4-chlorophenyl)-2,3,9-trimethyl-6H-thieno[3,2-f][1,2,4]triazolo[4,3-a][1,4]diazepin-6-yl)-1-(4-(4-(3-(2,4-dihydroxy-5-isopropylphenyl)-5-hydroxy-4H-1,2,4-triazol-4-yl)benzyl)piperidin-1-yl)ethanone, trifluoroacetic acid], the IC50 is less than 100 nM.
On the same count and under the same terms, the figure for `CCc1cc(-c2nnc(O)n2-c2ccc(CN3CCC(C(=O)N4CCC(CNCC[C@@H]5N=C(c6ccc(Cl)cc6)c6c(sc(C)c6C)-n6c(C)nnc65)CC4)CC3)cc2)c(O)cc1O` [Compound 68, (4-(((2-((6S)-4-(4-chlorophenyl)-2,3,9-trimethyl-6H-thieno[3,2-f][1,2,4]triazolo[4,3-a][1,4]diazepin-6-yl)ethyl)amino)methyl)piperidin-1-yl)(1-(4-(3-(5-ethyl-2,4-dihydroxyphenyl)-5-hydroxy-4H-1,2,4-triazol-4-yl)benzyl)piperidin-4-yl) methanone, trifluoroacetic acid] is 100 to 1000 nM.
Still for that read-out and setting: the value for `Cc1sc2c(c1C)C(c1ccc(Cl)cc1)=N[C@@H](CC(=O)NCC(=O)NCC1CN(C(=O)C3CCN(Cc4ccc(-n5c(O)nnc5-c5cc(C(C)C)c(O)cc5O)cc4)CC3)C1)c1nnc(C)n1-2` [Compound 60, 2-((6S)-4-(4-chlorophenyl)-2,3,9-trimethyl-6H-thieno[3,2-f][1,2,4]triazolo[4,3-a][1,4]diazepin-6-yl)-N-(2-(((1-(1-(4-(3-(2,4-dihydroxy-5-isopropylphenyl)-5-hydroxy-4H-1,2,4-triazol-4-yl)benzyl)piperidine-4-carbonyl)azetidin-3-yl)methyl)amino)-2-oxoethyl)acetamide, trifluoroacetic acid] was less than 100 nM.
Regarding `Cc1sc2c(c1C)C(c1ccc(Cl)cc1)=NC(CC(=O)N1CCC(Cc3ccc(CN(C)Cc4ccc(-n5c(C(=O)NCC(F)(F)F)nnc5-c5cc(C(C)C)c(O)cc5O)cc4)cc3)CC1)c1nnc(C)n1-2` (stereo in doubt) [Compound 84, (S)-4-(4-(((4-((1-(2-(4-(4-chlorophenyl)-2,3,9-trimethyl-6H-thieno[3,2-f][1,2,4]triazolo[4,3-a][1,4]diazepin-6-yl)acetyl)piperidin-4-yl)methyl)benzyl)(methyl)amino)methyl)phenyl)-5-(2,4-dihydroxy-5-isopropylphenyl)-N-(2,2,2-trifluoroethyl)-4H-1,2,4-triazole-3-carboxamide, trifluoroacetic acid], the IC50 was less than 100 nM.
The same measure, in the same setting: the value for `Cc1sc2c(c1C)C(c1ccc(Cl)cc1)=N[C@@H](CCNCC1CCN(C(=O)C3CCN(Cc4ccc(-n5c(O)nnc5-c5cc(C(C)C)c(O)cc5O)cc4)CC3)CC1)c1nnc(C)n1-2` [Compound 64, (4-(((2-((6S)-4-(4-chlorophenyl)-2,3,9-trimethyl-6H-thieno[3,2-f][1,2,4]triazolo[4,3-a][1,4]diazepin-6-yl)ethyl)amino)methyl)piperidin-1-yl)(1-(4-(3-(2,4-dihydroxy-5-isopropylphenyl)-5-hydroxy-4H-1,2,4-triazol-4-yl)benzyl)piperidin-4-yl) methanone, trifluoroacetic acid] was 100 to 1000 nM.
Turning to `CCc1cc(-c2nnc(O)n2-c2ccc(CN3CCC(C(=O)N4CCC(CNC(=O)C[C@@H]5N=C(c6ccc(Cl)cc6)c6c(sc(C)c6C)-n6c(C)nnc65)C4)CC3)cc2)c(O)cc1O` (stereo partly drawn) [Compound 77, 2-((6S)-4-(4-chlorophenyl)-2,3,9-trimethyl-6H-thieno[3,2-f][1,2,4]triazolo[4,3-a][1,4]diazepin-6-yl)-N-((1-(1-(4-(3-(5-ethyl-2,4-dihydroxyphenyl)-5-hydroxy-4H-1,2,4-triazol-4-yl)benzyl)piperidine-4-carbonyl)pyrrolidin-3-yl)methyl)acetamide, trifluoroacetic acid], the IC50 was 100 to 1000 nM.
Same read-out and setting: the value for `Cc1sc2c(c1C)C(c1ccc(Cl)cc1)=N[C@@H](CC(=O)NCC(=O)NCCOc1ccc(-n3c(S)nnc3-c3cc(C(C)C)c(O)cc3O)cc1)c1nnc(C)n1-2` [Compound 48, (S)-2-(4-(4-chlorophenyl)-2,3,9-trimethyl-6H-thieno[3,2-f][1,2,4]triazolo[4,3-a][1,4]diazepin-6-yl)-N-(2-((2-(4-(3-(2,4-dihydroxy-5-isopropylphenyl)-5-mercapto-4H-1,2,4-triazol-4-yl)phenoxy)ethyl)amino)-2-oxoethyl)acetamide] was 100 to 1000 nM.
